Reference: US8372808B2, “Suppression of glial fibrillary acidic protein” (Wisconsin Alumni Research Foundation, priority 2008, dated 2013)
“And” between values parts separate entries of the source, which are not always exact repeats. Equal values may be shown once.

Tests used:
[1] = test system: 2.2 kb human GFAP promoter; assay: hGFAP promoter luciferase activity assay in 172.9 cells (primary astrocytes from dual luciferase transgenic mice); type: cell-based
mGFAP protein = assay: cell-based GFAP protein level assay (cell-based ELISA) in 172.9 cells; parameters: species or system mouse; conditions: tertiary screen; 48 hr exposure; at the MTDcc
GFAP protein = GFAP protein in brain of Tg172.9 mice (sandwich ELISA); type: in vivo, mouse
Description: Another group of mice were injected with the same volume of vehicle alone (n=15). Brains were bisected sagittally with one half analyzed for GFAP promoter activity using the Dual-Glo assay, and the other half analyzed for GFAP protein using the sandwich ELISA. FIG. 7A is a bar graph showing hGFAP promoter activity of clomipramine-treated mice. The mice show a 26% reduction in hGFAP promoter activity compared to vehicle-treated controls. FIG. 7B is a bar graph showing the GFAP protein levels of clomipramine-treated mice. The mice show a 57% reduction in total GFAP content compared to vehicle-treated controls. Graphs present the mean±SD (* p<0.05, ***p<0.001, unpaired t-test).
At various times after injection, from 0-48 hours, brains were harvested for measurement of GFAP promoter activity using the Dual-Glo luciferase assay, and GFAP protein using a sandwich ELISA.
Injections were given in the afternoon, between 3-5 PM. Controls were transgenic littermates injected with vehicle alone. At the end of the three week course of injections (and one day after the last injection), brains were harvested for analysis of GFAP promoter activity and protein levels as described above.
To achieve significant reductions of GFAP protein in vivo may require chronic treatments, given the slow turnover of this protein. […] Controls were injected with vehicle alone. […]

GAPDH promoter = assay: housekeeping GAPDH promoter activity in brain of Tg172.9 mice; type: in vivo, mouse; conditions: 40 mg/kg IP every other day for 3 weeks
Description: The dual transgenic reporter mice (FVB-Tg(GFAP-luc,GAPDH-luc)172.9Mes/J mice (JR#9638)) were developed as follows. The two transgenes were co-injected at equimolar ratios into the pronuclei of fertilized eggs on either FVB/N or FB6F1 hybrid backgrounds, using a combined concentration of 3 ng/μL. Genotyping was performed by PCR on genomic DNA isolated from tail biopsies at weaning, using the following conditions: one cycle at 95° C. 3 min, 32 cycles of 95° C. 40 s, 58° C. 30 s, 72° C. 1 min and a final extension step at 72° C. for 5 min. The primers used for detection of the GFAP-fLuc transgene were 5′-[…]-3′ (forward) and 5′-[…]-3′ (reverse), and for detection of the GAPDH-RLuc transgene were 5″-[…]-3′ (forward) and 5′-[…]-3′ (reverse). The predicted sizes for the PCR fragments are 403 bp for the GFAP-fLuc transgene, and 551 by for the GAPDH-RLuc transgene. Nine founder mice were identified that contained both transgenes, and were mated to FVB/N mice to establish lines. (The Tg172-9 line of mice has been donated to the Jackson Laboratory ([…]) for unrestricted distribution (stock #JR9638). The GAPDH (glyceraldehyde 3-phosphate dehydrogenase) promoter was used to monitor transcription of a housekeeping gene for signal normalization.

[2] = pilot studies with daily injections of clomipramine (tolerability); type: in vivo, mouse; conditions: daily injections of 40 mg/kg; after 2 weeks
[3] = sometimes considered in combination with desmethyl-clomipramine; cited from earlier work

## CN(C)CCCN1c2ccccc2CCc2ccc(Cl)cc21 [clomipramine]
[1]; cultured astrocytes
  concentrations found effective in cultured astrocytes: 5 to 10 µM
[1]; quaternary screen, 10 days of exposure, 0-20 μM
  reductions in luciferase activity: consistent reductions
[1]; tertiary screen, 48 hr exposure, at the MTDcc
  % GFAP reductions, luciferace expression from hGFAP promoter: 66%
mGFAP protein
  % GFAP reductions, mGFAP protein via ELISA: 20.6%
GFAP protein; 40 mg/kg IP every other day for 3 weeks
  reduction in GFAP protein compared to vehicle-treated controls: 57% and ~50%
GFAP protein; acute treatment, single IP injection, 0-48 hours
  changes in GFAP protein levels: no changes
GAPDH promoter
  change in activity from the housekeeping GAPDH promoter: no significant change
[2]
  side effect of daily injections: weight loss
[3]
  plasma concentration considered therapeutic in humans: 300 to 1750 nM
